Patent publication US20230031406A1, “COMPOUNDS AND COMPOSITIONS FOR TREATING CONDITIONS ASSOCIATED WITH NLRP ACTIVITY” (Novartis AG, priority 2018, published 2023)
Where two headings read alike, the source gives them in different places.

System: PMA-differentiated THP-1 cells
Test: hTHP-1 assay containing 10% fetal bovine serum (IL-1β production, Tables B5 and B6)
Assay type: cell-based, human
Method: The following protocol is suitable for testing the activity of the compounds disclosed herein. Procedure 1: IL-1β Production in PMA-Differentiated THP-1 Cells Stimulated with Gramicidin.
THP-1 cells were purchased from the American Type Culture Collection and sub-cultured according to instructions from the supplier. Cells were cultured in complete RPMI 1640 (containing 10% heat inactivated FBS, penicillin (100 units/ml) and streptomycin (100 μg/ml)), and maintained in log phase prior to experimental setup. Prior to the experiment, compounds were dissolved in dimethyl sulfoxide (DMSO) to generate a 30 mM stock. The compound stock was first pre-diluted in DMSO to 3, 0.34, 0.042 and 0.0083 mM intermediate concentrations and subsequently spotted using Echo550 liquid handler into an empty 384-well assay plate to achieve desired final concentration (e.g. 100, 33, 11, 3.7, 1.2, 0.41, 0.14, 0.046, 0.015, 0.0051, 0.0017 μM). DMSO was backfilled in the plate to achieve a final DMSO assay concentration of 0.37%. The plate was then sealed and stored at room temperature until required.
THP-1 cells were treated with PMA (Phorbol 12-myristate 13-acetate) (20 ng/ml) for 16-18 hours. On the day of the experiment the media was removed and adherent cells were detached with trypsin for 5 minutes. […] The cells were plated in the 384-well assay plate containing the spotted compounds at a density of 50,000 cells/well (final assay volume 50 μl). Cells were incubated with compounds for 1 hour and then stimulated with gramicidin (5 μM) (Enzo) for 2 hours. Plates were then centrifuged at 340 g for 5 min. Cell free supernatant (40 μL) was collected using a 96—CHannel PlateMaster (Gilson) and the production of IL-1β was evaluated by HTRF (cisbio). The plates were incubated for 18 h at 4° C. and read using the preset HTRF program (donor emission at 620 nm, acceptor emission at 668 nm) of the SpectraMax i3x spectrophotometer (Molecular Devices, software SoftMax 6). A vehicle only control and a dose titration of CRID3 (100-0.0017 μM) were run concurrently with each experiment.
Procedure 2: IL-1β Production in PMA-Differentiated THP-1 Cells Stimulated with Gramicidin.
THP-1 cells were purchased from the American Type Culture Collection and sub-cultured according to instructions from the supplier. Prior to experiments, cells were cultured in complete RPMI 1640 (containing 10% heat inactivated FBS, penicillin (100 units/ml) and streptomycin (100 μg/ml)), and maintained in log phase prior to experimental setup. Prior to the experiment THP-1 were treated with PMA (Phorbol 12-myristate 13-acetate) (20 ng/ml) for 16-18 hours. Compounds were dissolved in dimethyl sulfoxide (DMSO) to generate a 30mM stock. On the day of the experiment the media was removed and adherent cells were detached with trypsin for 5 minutes. […] The cells were plated in a 384-well plate at a density of 50,000 cells/well (final assay volume […]). Compounds were first dissolved in assay medium to obtain a 5× top concentration of 500 μM. 10 step dilutions (1:3) were then undertaken in assay medium containing 1.67% DMSO. 5× compound solutions were added to the culture medium to achieve desired final concentration (e.g. 100, 33, 11, 3.7, 1.2, 0.41, 0.14, 0.046, 0.015, 0.0051, 0.0017 μM). Final DMSO concentration was at 0.37%. Cells were incubated with compounds for 1 hour and then stimulated with gramicidin (5 μM) (Enzo) for 2 hours. Plates were then centrifuged at 340 g for 5 min. Cell free supernatant (40 μL) was collected using a 96—CHannel PlateMaster (Gilson) and the production of IL-1β was evaluated by HTRF (cisbio). A vehicle only control and a dose titration of CRID3 (100-0.0017 μM) were run concurrently with each experiment.
Tables B1, B2, B3, and B4 show the biological activity of compounds in hTHP-1 assay containing 2% fetal bovine serum. […] Key: <0.008 μM=“++++++”; ≥0.008 and <0.04 μM=“+++++”; >0.04 and <0.2 μM=“++++”; ≥0.2 and <1 μM=“+++”; ≥1 and <5 μM=“++”; ≥5 and <30 μM=“+”. […]

[1] = Homo sapiens, THP-1, read-out: hTHP-1 IC50 in 10% FBS, hTHP-1 assay containing 10% fetal bovine serum, Table B5
[2] = read-out: hTHP-1 IC50 in 10% FBS, hTHP-1 assay containing 10% fetal bovine serum, Table B6
[3] = Homo sapiens, THP-1, read-out: hTHP-1 IC50 in 10% FBS, hTHP-1 assay containing 10% fetal bovine serum, Table B6

Work on Cc1c(C(F)(F)F)nc2c(c1NC(=O)N=S(N)(=O)c1nn(C3CC3)cc1F)CCC2 (stereo not shown) [Compound 1114, 1-Cyclopropyl-4-fluoro-N′-((3-methyl-2-(trifluoromethyl)-6,7-dihydro-5H-cyclopenta [b]pyridin-4-yl)carbamoyl)-1H-pyrazole-3-sulfonimidamide] yielded an IC50 [1] of 40 to 200 nM.

CC(C)(O)c1csc(S(N)(=O)=NC(=O)Nc2c3c(nc(C(F)(F)F)c2C2CC2)CCC3)c1F (single isomer, unassigned) [Compound 1105a, (R) or (S)-N′-((3-cyclopropyl-2-(trifluoromethyl)-6,7-dihydro-5H-cyclopenta[b]pyridin-4-yl)carbamoyl)-3-fluoro-4-(2-hydroxypropan-2-yl)thiophene-2-sulfonimidamide] gave an IC50 (read-out: hTHP-1 IC50 in 10% FBS, hTHP-1 assay containing 10% fetal bovine serum, Table B5, listed as 834) of 40 to 200 nM.

For Cc1c(C(F)(F)F)ncc(-c2ccnc(C#N)c2)c1NC(=O)N=S(N)(=O)c1sc(C(C)(C)O)nc1CO (stereo not shown) [Compound 812], the IC50 [1] was 40 to 200 nM.

Work on Cc1c(C(F)(F)F)nc2c(c1NC(=O)N=S(N)(=O)c1nn(C3CC3)cc1F)CCC2 (single isomer, unassigned) [Example 869, (R) or (S)-1-cyclopropyl-4-fluoro-N′-((3-methyl-2-(trifluoromethyl)-6,7-dihydro-5H-cyclopenta[b]pyridin-4-yl)carbamoyl)-1H-pyrazole-3-sulfonimidamide] yielded an IC50 [2] of 8 to 40 nM.

Cc1nc2c(c(NC(=O)N=S(N)(=O)c3scc(C(C)(C)O)c3F)c1-c1ccccc1)CCC2 (single isomer, unassigned) [Compound 1110a, (S) or (R)-3-fluoro-4-(2-hydroxypropan-2-yl)-N′-((2-methyl-3-phenyl-6,7-dihydro-5H-cyclopenta[b]pyridin-4-yl)carbamoyl)thiophene-2-sulfonimidamide] was tested, and the IC50 (read-out: hTHP-1 IC50 in 10% FBS, hTHP-1 assay containing 10% fetal bovine serum, Table B5, listed as 844) was 200 to 1000 nM.

Work on C[C@@H]1CCc2c1nc1c(c2NC(=O)N=S(N)(=O)c2nn(C(C)(F)F)cc2F)CCC1 (single isomer, unassigned) [Compound 1117b, (S) or (R)-1-(1,1-difluoroethyl)-4-fluoro-N′-(((R)-3-methyl-1,2,3,5,6,7-hexahydrodicyclopenta[b,e]pyridin-8-yl)carbamoyl)-1H-pyrazole-3-sulfonimidamide] yielded an IC50 (read-out: hTHP-1 IC50 in 10% FBS, hTHP-1 assay containing 10% fetal bovine serum, Table B5, listed as 851) of 200 to 1000 nM.

With CC(C)n1cc(F)c(S(N)(=O)=NC(=O)Nc2c3c(nc(C(F)(F)F)c2C2CC2)CCC3)n1 (single isomer, unassigned) [Compound 1104a, (R) or (S)-N′-((3-cyclopropyl-2-(trifluoromethyl)-6,7-dihydro-5H-cyclopenta[b]pyridin-4-yl)carbamoyl)-4-fluoro-1-isopropyl-1H-pyrazole-3-sulfonimidamide] the IC50 (read-out: hTHP-1 IC50 in 10% FBS, hTHP-1 assay containing 10% fetal bovine serum, Table B5, listed as 826) was 40 to 200 nM.

Work on C[C@@H]1CCc2c1nc1c(c2NC(=O)N=S(N)(=O)c2nn(C(C)(F)F)cc2F)CCC1 (single isomer, unassigned) [Compound 1117a, (R) or (S)-1-(1,1-difluoroethyl)-4-fluoro-N′-(((R)-3-methyl-1,2,3,5,6,7-hexahydrodicyclopenta[b,e]pyridin-8-yl)carbamoyl)-1H-pyrazole-3-sulfonimidamide] yielded an IC50 (read-out: hTHP-1 IC50 in 10% FBS, hTHP-1 assay containing 10% fetal bovine serum, Table B5, listed as 850) of 8 to 40 nM.

Compound CCn1cc(F)c(S(N)(=O)=NC(=O)Nc2c3c(nc(C)c2C(F)(F)F)CCC3)n1 (single isomer, unassigned) [Compound 1116b, (S) or (R)-1-ethyl-4-fluoro-N′-((2-methyl-3-(trifluoromethyl)-6,7-dihydro-5H-cyclopenta[b]pyridin-4-yl)carbamoyl)-1H-pyrazole-3-sulfonimidamide] has an IC50 (read-out: hTHP-1 IC50 in 10% FBS, hTHP-1 assay containing 10% fetal bovine serum, Table B5, listed as 849) of 1000 to 5000 nM.

Work on C[C@@H]1CCc2c1nc1c(c2NC(=O)N=S(N)(=O)c2nn(C(C)(F)F)cc2F)CCC1 (stereo partly drawn) [Compound 1111, 1-(1,1-Difluoroethyl)-4-fluoro-N′-(((R)-3-methyl-1,2,3,5,6,7-hexahydrodicyclopenta [b,e]pyridin-8-yl)carbamoyl)-1H-pyrazole-3-sulfonimidamide] yielded an IC50 [1] of 8 to 40 nM.

Work on Cc1c(C(F)(F)F)nc2c(c1NC(=O)N=S(N)(=O)c1nn(C(C)(F)F)cc1F)CCC2 (single isomer, unassigned) [Compound 1004a, (R) or (S)-1-(1,1-Difluoroethyl)-4-fluoro-N′-((3-methyl-2-(trifluoromethyl)-6,7-dihydro-5H-cyclopenta[b]pyridin-4-yl)carbamoyl)-1H-pyrazole-3-sulfonimidamide] yielded an IC50 (read-out: hTHP-1 IC50 in 10% FBS, hTHP-1 assay containing 10% fetal bovine serum, Table B5, listed as 832) of 40 to 200 nM.

Work on C[C@@H]1CCc2c1nc1c(c2NC(=O)N=S(N)(=O)c2nn(C3CC3)cc2F)CCC1 (stereo partly drawn) [Example 855, 1-Cyclopropyl-4-fluoro-N′-(((R)-3-methyl-1,2,3,5,6,7-hexahydrodicyclopenta[b,e]pyridin-8-yl)carbamoyl)-1H-pyrazole-3-sulfonimidamide] yielded an IC50 [3] of 8 to 40 nM.

CC(C)(O)c1csc(S(N)(=O)=NC(=O)Nc2c3c(nc(C(F)(F)F)c2C2CC2)CCC3)c1F (single isomer, unassigned) [Compound 1105b, (S) or (R)-N′-((3-cyclopropyl-2-(trifluoromethyl)-6,7-dihydro-5H-cyclopenta[b]pyridin-4-yl)carbamoyl)-3-fluoro-4-(2-hydroxypropan-2-yl)thiophene-2-sulfonimidamide] gave an IC50 (read-out: hTHP-1 IC50 in 10% FBS, hTHP-1 assay containing 10% fetal bovine serum, Table B5, listed as 835) of 200 to 1000 nM.

For NS(=O)(=NC(=O)Nc1c2c(nc3c1CCC31CC1)CCC2)c1nn(C2CC2)cc1F (single isomer, unassigned) [Example 865, (R) or (S)-1-cyclopropyl-4-fluoro-N′-((1′,5′,6′,7′-tetrahydro-2′H-spiro[cyclopropan-1,3′-dicyclopenta[b,e]pyridin]-8′-yl)carbamoyl)-1H-pyrazole-3-sulfonimidamide], the IC50 [3] was 40 to 200 nM.

In the case of NS(=O)(=NC(=O)Nc1c2c(nc3c1CCC31CC1)CCC2)c1nn(C2CC2)cc1F (single isomer, unassigned) [Example 866, (S) or (R)-1-cyclopropyl-4-fluoro-N′-((1′,5′,6′,7′-tetrahydro-2′H-spiro[cyclopropan-1,3′-dicyclopenta[b,e]pyridin]-8′-yl)carbamoyl)-1H-pyrazole-3-sulfonimidamide], the IC50 [2] is reported as 40 to 200 nM.

Compound Cc1c(C(F)(F)F)nc2c(c1NC(=O)N=S(N)(=O)c1cnc(C(F)F)s1)CCC2 (stereo not shown) [Compound 1007, 2-(Difluoromethyl)-N′-((3-methyl-2-(trifluoromethyl)-6,7-dihydro-5H-cyclopenta[b]pyridin-4-yl)carbamoyl)thiazole-5-sulfonimidamide] has an IC50 [1] of 5000 to 30000 nM.
